Values of other authors in US8410124B2, “Deuterated etravirine” (Concert Pharmaceuticals Inc., priority 2007, dated 2013).

Assays:
[1] = over a 2 hour period
[2] = humans

degradation in human liver microsomes [1]: 15%
excreted largely intact in the feces ([2]; feces): > 85%
excreted largely intact in the urine ([2]; urine): < 1%
SMILES: Cc1cc(C#N)cc(C)c1Oc1nc(Nc2ccc(C#N)cc2)nc(N)c1Br [etravirine, 4-(6-amino-5-bromo-2-(4-cyanophenylamino)pyrimidin-4-yloxy)-3,5-dimethylbenzonitrile]
most common adverse effects of the combined regimen (healthy volunteers, etravirine in combination with lopinavir/ritonavir): diarrhea and headache
safety and tolerability profile (phase IIb trials with treatment-experienced patients): generally comparable with placebo
mild side effects (trials with HIV-1-infected patients dosed with etravirine): diarrhea, headache, abdominal pain, acute tonsillitis, flatulence, gastroenteritis, hot flushes, insomnia, intercostal pain, pruritus, somnolence, tachycardia and vomiting
